Read-outs that look alike come from different tables or passages of the source.
Tests used:
[1] = molecular target: T1, α7 nicotinic acetylcholine receptor (Rattus norvegicus, UniProt Q05941); settings: cited from earlier work
T1 construct: expressed in transfected cells; host or cells: KXa7R1 cell line (HEK293)

[2] = cited from earlier work
[3] = system: mice; settings: cited from earlier work
[4] = system: depression; settings: oral, 2019 systematic review; cited from earlier work
[5] = system: depressive disorder patients; experiment: Example 6: subcut/IV ketamine with supplemental oral dose, then oral only; type: in vivo, human
Experimental: Patients (n=12 patients) were administered a ketamine-based treatment comprising a subcut/IV ketamine dose with a supplemental oral dose (as described herein).

[6] = system: Treatment Resistant Depression (TRD); experiment: Example 5 pilot study: combined subcutaneous/IV and oral ketamine in TRD patients; type: in vivo, human; settings: for mean MADRS reduction: TRD patients
Experimental: Six patients diagnosed with Treatment Resistant Depression (TRD) received a combined ketamine treatment as outlined below. Their mean age was 53.1 (SD: 9.3). Five of the patients had previously attempted suicide and been admitted to a psychiatric unit. Three patients had received electroconvulsive therapy (ECT).
Five of the patients received oral ketamine of dose range 120-240 mg, (for example three to six capsules of 40 mg/day as described herein), once a week, four days after ketamine subcutaneous (0.5 mg-1.0 mg/kg) was administered once a week.
One patient received ketamine intravenously once a week and oral ketamine twice a week of dose 240 mg (for example, six capsules of 40 mg/day as described herein) each time.
The patients received on average 30.8 weeks (SD:7.7) ketamine subcutaneous-oral treatment and 10.6 weeks (SD: 6.7) ketamine IV-oral treatment.
This pilot study was conducted to explore the safety, tolerability, and potential clinical effectiveness of a treatment with repeated, low-dose oral ketamine capsules.

[7] = system: Major Depression Disorder (MDD) and Treatment-resistant depression (TRD); settings: single IV administration, subanaesthetic dose 0.5 mg/kg; cited from earlier work

T1 sequence (Q05941 23-502): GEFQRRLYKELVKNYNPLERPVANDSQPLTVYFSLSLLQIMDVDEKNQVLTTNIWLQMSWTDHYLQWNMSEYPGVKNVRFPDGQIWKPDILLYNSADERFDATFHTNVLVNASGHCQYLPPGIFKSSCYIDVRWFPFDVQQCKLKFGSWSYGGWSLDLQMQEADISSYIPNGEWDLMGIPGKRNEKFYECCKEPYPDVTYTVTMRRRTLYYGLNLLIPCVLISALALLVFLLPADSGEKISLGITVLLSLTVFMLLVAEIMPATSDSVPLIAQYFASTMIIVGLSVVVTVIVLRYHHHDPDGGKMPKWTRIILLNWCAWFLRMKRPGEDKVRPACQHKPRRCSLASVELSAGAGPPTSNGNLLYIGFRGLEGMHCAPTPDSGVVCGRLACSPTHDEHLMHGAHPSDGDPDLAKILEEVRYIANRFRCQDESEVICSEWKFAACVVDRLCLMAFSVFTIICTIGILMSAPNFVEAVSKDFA

In the case of `NC1(c2ccccc2Cl)CCCCC1=O` (stereo not shown) [norketamine], the “potency as negative allosteric modulator” value ([1]; KXa7R1 cell line) is given as “subanaesthetic and nanomolar potencies” and the “plasma levels of metabolite relative to ketamine” value ([2]; following oral administration of ketamine) is given as “three times higher than ketamine”.
For `N[C@@]1(c2ccccc2Cl)CCC[C@@H](O)C1=O` [(2R,6R)-HNK], the antidepressant-like effects [3] is given as “ketamine-type antidepressant-like effects”.
In the case of `NC1(c2ccccc2Cl)CCCC(O)C1=O` (stereo not shown) [hydroxynorketamine], the “potency as negative allosteric modulator” value ([1]; KXa7R1 cell line) is given as “subanaesthetic and nanomolar potencies”.
For `NC1(c2ccccc2Cl)CCC=CC1=O` (stereo not shown) [dehydronorketamine], the IC50 ([1]; KXa7R1 cell line (HEK293 cells transfected with rat nicotinic acetylcholine receptor genes)) is given as 55 nM and the “potency as negative allosteric modulator” value ([1]; KXa7R1 cell line) is given as “subanaesthetic and nanomolar potencies”.
For `CNC1(c2ccccc2Cl)CCCCC1=O` (stereo not shown) [ketamine, Ketamine], the antidepressant effects [4] is listed as “significant antidepressant effects”, the tolerability [4] is listed as “good overall tolerability” and the “response to oral ketamine after stopping initial IV or subcutaneous ketamine treatment” value ([5]; especially oral twice a week at 160-240 mg) is listed as “respond very well”. The “remission levels after switch to oral only treatment” value ([5]; n=12 patients, oral only) was “maintained their remission levels at the same level as when administered the combination treatment”, the “remission via MADRS scores” value ([5]; n=12 patients, subcut/IV ketamine dose with supplemental oral dose) was roughly 50% and the “activity at the same concentrations” value ([1]; KXa7R1 cell line, <1 μM) was “inactive”. For the same compound, the “response and tolerability of the treatment regimens” value ([6]; after 45 to 75 minutes after dosing) was “good response and tolerability in all patients”, the “mean MADRS reduction” value ([6]; between first and last treatment, subcutaneous-oral ketamine treatment) was −5.7 (SD: 11.0) and the “mean MADRS reduction” value ([6]; intravenous-oral ketamine treatment) was −5.7 (SD: 10.0). For the same compound, the “duration of significant improvement of cognition” value ([6]; one patient, ketamine IV once a week and oral ketamine twice a week 240 mg) was 24 to 36 h, the “severity of adverse events” value ([6]; repeated, low-dose oral ketamine capsules) was “Most adverse events were moderate and self-limiting” and the “ketamine cravings or urge to use beyond the prescribed period” value ([6]; six TRD patients) was “No participant reported ketamine cravings”. The “onset of moderate discomforts or moderate increase of pre-existing discomforts, reports” value ([6]; six TRD patients) was 32 times, the “positive effects (reduction of suicidal thoughts, improved mood, cognition, increased energy)” value ([6]; six TRD patients) was “Most of the participants reported positive effects” and the “premature discontinuation of treatment” value ([6]; six TRD patients) was “none of the participants discontinued treatment prematurely”. For the same compound, the serious side effects ([6]; six TRD patients) was “No serious side effects occurred”, the “tolerability of treatment with oral ketamine” value ([6]; six TRD patients) was “well-tolerated” and the Bioavailability ([2]; intranasally) was 8-50%. For the same compound, the “time to peak plasma concentrations” value ([2]; intravenously) was “within a minute”, the Bioavailability ([2]; oral route) was 17-20% and the “time to peak plasma concentrations” value ([2]; orally) was 30 min. For the same compound, the Bioavailability ([2]; rectally) was “up to 30%”, the Bioavailability ([2]; sublingually) was “up to 30%” and the “duration of antidepressant effect” value [7] was 4 to 7 days. The “time to antidepressant action” value [7] was no more than 24 h.

— patent publication US20240315987A1, “ORAL CO[…] COMBINED WITH S[…] I[…] FOR USE IN THE TREATMENT, CONTROL OR PREVENTION OF DEPRESSIVE DISORDERS” (N[…] LTD., priority 2020, published 2024)
